The source made the active and inactive calls. The rule behind the calls is not given here.
What was measured:
[1] = test system: Escherichia coli str. K-12 substr. MG1655; experiment: Inhibition of NDM-1 in Escherichia coli MG1655 assessed as potentiation of meropenem induced antibacterial activity by measuring meropenem MIC at 100 ug/ml after 18 to 24 hrs by broth microdilution method (reference value: >128 ug/ml)
[2] = molecular target: Metallo-beta-lactamase type 2 (Klebsiella pneumoniae) (UniProt C7C422); experiment: Inhibition of NDM-1 in Klebsiella pneumoniae ATCC 5055 assessed as potentiation of meropenem induced antibacterial activity by measuring meropenem MIC at 100 ug/ml after 18 to 24 hrs by broth microdilution method (reference value: >128 ug/ml)
Chain of Metallo-beta-lactamase type 2 (Klebsiella pneumoniae) (C7C422 whole entry): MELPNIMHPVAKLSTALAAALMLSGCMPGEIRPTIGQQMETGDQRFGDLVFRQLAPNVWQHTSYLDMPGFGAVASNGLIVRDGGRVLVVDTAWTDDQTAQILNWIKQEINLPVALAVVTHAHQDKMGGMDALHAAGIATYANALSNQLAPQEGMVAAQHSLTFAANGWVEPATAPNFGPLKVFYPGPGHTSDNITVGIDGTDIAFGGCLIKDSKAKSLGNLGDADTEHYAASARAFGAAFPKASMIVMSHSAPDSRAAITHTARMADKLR

[3] = Inhibition of recombinant bacterial NDM-1 expressed in Escherichia coli BL21 (DE3) cells using imipenem as substrate in presence of Triton X-100 by spectrophotometric analysis; parameters: species or system Bacteria
[4] = Inhibition of recombinant bacterial IMP-1 expressed in Escherichia coli BL21 (DE3) cells using FC4 as substrate preincubated for 10 mins prior to substrate addition in presence of Triton X-100 by fluorescence-based assay; parameters: species or system Bacteria
[5] = Inhibition of recombinant bacterial VIM-2 expressed in Escherichia coli BL21 (DE3) cells using FC4 as substrate preincubated for 10 mins prior to substrate addition in presence of Triton X-100 by fluorescence-based assay; parameters: species or system Bacteria
[6] = Inhibition of recombinant bacterial Bc2 expressed in Escherichia coli BL21 (DE3) cells using FC5 as substrate preincubated for 10 mins prior to substrate addition by fluorescence-based assay; parameters: species or system Bacteria
[7] = Inhibition of recombinant bacterial SPM-1 expressed in Escherichia coli BL21 (DE3) cells using FC5 as substrate preincubated for 10 mins prior to substrate addition by fluorescence-based assay; parameters: species or system Bacteria
[8] = test system: Bacteria; experiment: Binding affinity to recombinant bacterial VIM-2 expressed in Escherichia coli BL21 (DE3) cells at 50 uM in presence of 4-(2,3-dichlorophenyl)-2-(sulfonylmethyl)benzoic acid by NMR method
[9] = Aqueous solubility of the compound in phosphate buffer at pH 7.0; type: physicochemical
[10] = test system: Liver; experiment: Drug metabolism in human liver microsomes; type: ADME, microsome
[11] = molecular target: T1, 5' exonuclease Apollo (Homo sapiens, UniProt Q9H816); experiment: Inhibition of human DCLRE1B
T1 sequence (Q9H816 whole entry): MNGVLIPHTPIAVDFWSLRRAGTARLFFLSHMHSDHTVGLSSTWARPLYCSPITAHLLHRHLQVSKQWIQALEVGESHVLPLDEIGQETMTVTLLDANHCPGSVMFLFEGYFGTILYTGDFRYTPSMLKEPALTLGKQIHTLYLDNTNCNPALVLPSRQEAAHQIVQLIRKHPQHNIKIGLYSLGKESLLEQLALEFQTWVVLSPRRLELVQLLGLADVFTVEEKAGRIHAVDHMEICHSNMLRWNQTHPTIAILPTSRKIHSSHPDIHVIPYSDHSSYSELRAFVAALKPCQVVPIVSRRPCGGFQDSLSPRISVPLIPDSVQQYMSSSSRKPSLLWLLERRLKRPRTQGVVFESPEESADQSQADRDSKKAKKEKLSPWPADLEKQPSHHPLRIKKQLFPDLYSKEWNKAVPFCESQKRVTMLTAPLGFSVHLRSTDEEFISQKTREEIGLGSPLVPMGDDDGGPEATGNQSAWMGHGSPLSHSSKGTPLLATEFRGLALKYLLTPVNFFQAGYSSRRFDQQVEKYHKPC

[12] = Binding affinity to recombinant bacterial VIM-2 expressed in Escherichia coli BL21 (DE3) cells by NMR method; parameters: species or system Bacteria
[13] = molecular target: Beta-lactamase OXA-10 (Pseudomonas aeruginosa, UniProt P14489); experiment: Inhibition of recombinant Pseudomonas aeruginosa OXA-10 expressed in Escherichia coli BL21 (DE3) cells using FC5 as substrate preincubated up to 360 mins prior to substrate addition by fluorescence-based assay
Chain of Beta-lactamase OXA-10 (P14489 whole entry, the tested form may be a part): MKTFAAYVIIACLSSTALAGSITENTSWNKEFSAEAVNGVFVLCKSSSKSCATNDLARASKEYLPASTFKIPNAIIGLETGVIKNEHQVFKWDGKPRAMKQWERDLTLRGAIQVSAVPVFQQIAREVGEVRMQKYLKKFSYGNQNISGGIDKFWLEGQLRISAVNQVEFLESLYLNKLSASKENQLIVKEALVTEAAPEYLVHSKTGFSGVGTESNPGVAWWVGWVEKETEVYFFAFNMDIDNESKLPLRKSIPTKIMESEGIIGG

[14] = molecular target: Beta-lactamase TEM (Bacteria, UniProt P62593); experiment: Inhibition of recombinant N-terminal His-tagged bacterial Escherichia coli TEM-1 (24 to 286 residues) expressed in Escherichia coli BL21 (DE3) cells using FC5 as substrate preincubated up to 360 mins prior to substrate addition by fluorescence-based assay
Chain of Beta-lactamase TEM (P62593 whole entry, the tested form may be a part): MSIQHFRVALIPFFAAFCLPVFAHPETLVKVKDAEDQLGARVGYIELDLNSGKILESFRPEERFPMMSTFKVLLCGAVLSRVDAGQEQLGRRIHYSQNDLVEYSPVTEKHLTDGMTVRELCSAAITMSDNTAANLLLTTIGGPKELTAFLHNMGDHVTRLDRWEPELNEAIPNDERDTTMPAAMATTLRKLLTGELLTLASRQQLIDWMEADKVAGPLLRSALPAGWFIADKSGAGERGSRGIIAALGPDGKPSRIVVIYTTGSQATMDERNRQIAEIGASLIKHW

[15] = test system: Pseudomonas aeruginosa PAO1; experiment: Inhibition of recombinant Psedomonas aeruginosa PAO1 N-terminal His-tagged AmpC expressed in Escherichia coli BL21 (DE3) cells using FC5 as substrate preincubated up to 360 mins prior to substrate addition in presence or absence of Triton X-100 by fluorescence-based assay

Structure (SMILES) | MIC [1] | MIC [2] | IC50 [3] | IC50 [4] | IC50 [5] | also measured
O=C(O)c1ccc(-c2cc(C(F)(F)F)cc(C(F)(F)F)c2)cc1CS | > 128 µg/mL | > 128 µg/mL | 44000 nM | 1720 nM | 450 nM | Activity [8]: inactive
O=C1SCc2cc(-c3ccccc3)ccc21 | – | – | – | – | > 100000 nM | –
O=C(O)c1ccc(-c2cccc(Cl)c2Cl)cc1CS | – | – | 1160 nM | 370 nM | 40 nM | Kd [12]: < 1000 nM; IC50 [13]: 37300 nM; IC50 [14]: 5500 nM; inhibition [15]: Active
O=C(O)c1ccc(Br)cc1CS | 32 µg/mL | 64 µg/mL | > 100000 nM | 800 nM | 170 nM | –
O=C(O)Cc1ccccc1S | – | – | – | – | > 100000 nM | –
O=C(O)c1ccc(-c2ccc(F)cc2)cc1CS | – | – | 710 nM | 300 nM | 230 nM | IC50 [6]: 780 to 7800 nM; IC50 [7]: 780 to 7800 nM; IC50 [14]: 32800 nM
O=C(O)c1ccc(-c2ccccc2C(F)(F)F)cc1CS | – | – | 8820 nM | 480 nM | 150 nM | –

The next lines start with results.

MIC [1] | MIC [2] | IC50 [3] | IC50 [4] | IC50 [5] | Structure (SMILES) | also measured
64 µg/mL | 16 µg/mL | 7590 nM | 320 nM | 180 nM | CCOc1cccc(-c2ccc(C(=O)O)c(CS)c2)c1 | –
– | – | 420 nM | 60 nM | 100 nM | O=C(O)c1ccc(-c2ccc(Cl)cc2)cc1CS | IC50 [6]: 780 to 7800 nM; IC50 [7]: 780 to 7800 nM
16 µg/mL | 32 µg/mL | 5590 nM | 230 nM | 230 nM | O=C(O)c1ccc(-c2ccccc2)cc1CS | solubility [9]: Soluble; Drug metabolism [10]: Metabolite_Detected; IC50 [11]: 149000 nM
32 µg/mL | 64 µg/mL | 10200 nM | 390 nM | 360 nM | O=C(O)c1ccc(-c2ccco2)cc1CS | –
16 µg/mL | 8 µg/mL | 6780 nM | 180 nM | 170 nM | O=C(O)c1ccc(-c2ccsc2)cc1CS | –
32 µg/mL | 32 µg/mL | 2420 nM | 220 nM | 70 nM | O=C(O)c1ccc(-c2ccc3ccccc3c2)cc1CS | –
– | – | 590 nM | 390 nM | 200 nM | O=C(O)c1ccc(-c2cccc(F)c2)cc1CS | IC50 [6]: 780 to 7800 nM; IC50 [7]: 780 to 7800 nM; IC50 [11]: 185000 nM
– | – | 310 nM | 140 nM | 70 nM | O=C(O)c1ccc(-c2cccc(Cl)c2)cc1CS | IC50 [6]: 780 to 7800 nM; IC50 [7]: 780 to 7800 nM; IC50 [11]: 268000 nM
– | – | 2850 nM | 300 nM | 180 nM | O=C(O)c1ccc(-c2ccccc2Cl)cc1CS | IC50 [6]: 780 to 7800 nM; IC50 [7]: 780 to 7800 nM; inhibition [15]: Active
32 µg/mL | 64 µg/mL | 570 nM | 50 nM | 100 nM | CCc1ccc(-c2ccc(C(=O)O)c(CS)c2)cc1 | –

Source: ChEMBL document CHEMBL4024786, “In Silico Fragment-Based Design Identifies Subfamily B1 Metallo-β-lactamase Inhibitors” (J Med Chem, 2018)
